Assay results published in publication PMC4871512, “Drug-Based Lead Discovery: The Novel Ablative Antiretroviral Profile of Deferiprone in HIV-1-Infected Cells and in HIV-Infected Treatment-Naive Subjects of a Double-Blind, Placebo-Controlled, Randomized Exploratory Trial” (PLoS ONE, 2016).
Entries after “also recorded” stand apart in the source; their conditions may differ.

Experiments:
[1] = tested on: HIV-1 clinical isolate in PBMCs; assay: p24 core antigen ELISA in supernatant of isolate-infected, long-term replenished primary cell cultures; assay type: cell-based; conditions: for p24, level relative to untreated controls: after two weeks, stably infected replenished primary cell cultures
Method: (§1) Cell-free supernatants were used for p24 and HIV-1 RNA measurements. p24 core antigen in the supernatant was quantified by ELISA (Retrotek HIV-1 p24®; ZeptoMetrix Corp.; Buffalo, NY). HIV-1 RNA copy number in the supernatant of PBMC cultures and in plasma of trial subjects enrolled in the exploratory deferiprone trial was determined with a PCR-based and FDA-approved assay (Amplicor HIV-1 Monitor®; Roche Diagnostics Corp.; Indianapolis, IN). For clinical samples, the assay was used per the Standard Specimen Processing Procedure (sensitivity limit 400 copies/ml); for cell culture samples, the assay was used in both the Standard Specimen Processing and the UltraSensitive Specimen Processing Procedure (sensitivity limit 50 copies/ml). If not specified further, the term “log10” designates the amount of HIV-1 RNA in the dimensions [log10 / ml]. The Roche Amplicor HIV-1 DNA Test (Roche Diagnostics Corp.; Indianapolis, IN) was used for detection of HIV-1 DNA with the primer pair SK431/462, which amplifies a highly conserved region of the gag genome of HIV-1 subtype B DNA. Results are shown per the assay’s optical readings of a chromogenic reaction that relates absorbance at 450 nm to the HIV-1 DNA copy number and is calibrated by assay-internal copy controls (A450 < 0.350, HIV-1 DNA absent; A450 ≥ 3.0, HIV-1 DNA present in excess of 20 copies; A450 between 0.350 and 3.0, HIV-1 DNA copy number per copy controls). Apoptotic DNA fragmentation was quantified flow-cytometrically, using a terminal deoxynucleotide transferase dUTP nick end-labeling (TUNEL) assay (APO-BRDU™; Phoenix Flow Systems; San Diego, CA). All experiments and assays were performed at least in duplicate.
(§2) The antiretroviral activity of deferiprone was tested in primary cultures of PBMCs, infected in vitro with clinical isolate or mock-infected with clinical isolate-identical cell- and virus-free medium as described. Briefly, to approximate the bi-compartmental mode of HIV-1 infection in vivo, which comprises a cell-generative compartment that provides non-infected but HIV-1 susceptible cells, and an HIV-generative compartment in which they become infected, the cultures were replenished as described with freshly obtained uninfected primary cells and medium at regular intervals, assuring identical cell number in both the treated and control cultures by computerized trypan blue exclusion analysis (Vi-CELL™; Beckman Coulter, Miami, FL); deferiprone concentrations were adjusted as indicated. This model allowed for months-long monitoring of HIV-1 parameters in productively infected cultures.

[2] = tested on: HIV-1 clinical isolate in PBMCs; assay: HIV-1 RNA copy number (Amplicor HIV-1 Monitor) in supernatant of isolate-infected PBMC cultures; assay type: cell-based; conditions: for viral breakthrough during monotherapy: one week to one month
Method: as §1, §2

[3] = cited from earlier work
[4] = after withdrawal of 100 μM deferiprone

In the case of `Cc1c(O)c(=O)ccn1C` [deferiprone, 3-hydroxy-1,2-dimethylpyridin-4-one], the “p24 after escalation of concentration” value ([1]; 50 μM for 30 days followed by escalation to 200 μM (data not shown)) is reported as “complete suppression of p24 within one week”, the p24 on-drug ([1]; 100 μM deferiprone) is reported as “declined to the limit of detectability” and the “p24, level relative to untreated controls” value ([1]; 100 μM deferiprone) is reported as ≤ 10%. For the same molecule, the “p24, level relative to untreated controls” value ([1]; 200 μM deferiprone) was ≤ 10%, the “extracellular p24 after deferiprone withdrawal” value ([1]; after 100 μM deferiprone) was “increased rapidly to levels higher than pre-treatment” and the p24 off-drug ([1]; after 200 μM deferiprone) was “did not rebound off-drug”. The p24 expression ([1]; below 100 μM deferiprone) was “only marginally affected”, the “HIV-1 RNA decrease below the pre-treatment level of ≥10^6 copies/ml” value ([2]; 100 μM deferiprone, on-drug) was “one order of magnitude” and the “HIV-1 RNA new steady state” value ([2]; 100 μM deferiprone, on-drug) was ~10^5 copies/ml. For the same molecule, the “viral breakthrough during monotherapy” value ([2]; 100 μM deferiprone, up to 35 days) was “did not elicit viral breakthrough; also recorded: did not allow viral breakthrough”, the “viral breakthrough during monotherapy” value ([2]; 200 μM (supra-threshold) deferiprone, up to 35 days / 5 weeks) was “did not allow viral breakthrough; also recorded: did not elicit viral breakthrough; also recorded: neither allowed breakthrough” and the “time to reach HIV-1 RNA ≤10^3 copies/ml” value ([2]; 200 μM deferiprone) was 2–4 weeks. For the same molecule, the “HIV-1 RNA decrease below its initial range” value ([2]; 200 μM deferiprone (Fig 1B)) was “at least three orders of magnitude”, the “HIV-1 RNA level reached on-drug” value ([2]; 200 μM deferiprone, depending on combination of viral isolate and PBMCs) was ≤ 10^3 copies/ml and the “decline of HIV-1 RNA production” value ([2]; 200 μM deferiprone, repeated experiments) was 3 log. The “off-drug period in which HIV-1 RNA production failed to resume” value ([2]; after 200 μM deferiprone, replenished with fresh CD4+ lymphocytes (Fig 1)) was “at least 10 days”, the “post-treatment period to reacquire the original level of ≥10^6 copies/ml” value [2, 4] was “about 5 days” and the “rate of HIV-1 RNA rebound to the pre-treatment range” value [2, 4] was “+0.24 log10/ml/day”. The viral copy number ([2]; below 100 μM deferiprone) was “only marginally affected”, the “HIV-1 RNA reduction relative to untreated cultures” value ([2]; off-drug after 200 μM deferiprone, apparently stable) was ~ 4 log and the “half-life in peripheral blood” value ([3]; human) was “approximately 2 hour”. The peak serum level ([3]; in vivo, 65.2 mg/kg) was “up to 450 µM”, the “difference in peak serum concentration (cmax) between UGT1A6-typed subjects” value ([3]; in vivo, po) was “up to 35%” and the “difference in total drug exposure over time (AUC0 - ∞) between UGT1A6-typed subjects” value ([3]; in vivo, po) was 38%.
